Measured values as given in PubChem BioAssay AID651581 (Sanford-Burnham Center for Chemical Genomics, 2012).
Calls of active or inactive are those of the source. How the calls were made is not given here.

Key:
[1] = biological target: Hypoxia-inducible factor 1-alpha (Homo sapiens) (UniProt Q16665); assay: HIF-2a and HIF-1a reporter inhibition panel, dose response, selectivity assay for HIF-2a inhibitor project, cell-based, luminescence (AID 651581); settings: HIF-1a
[2] = biological target: Endothelial PAS domain-containing protein 1 (Homo sapiens) (UniProt Q99814); assay: as above

Chain of Hypoxia-inducible factor 1-alpha (Homo sapiens) (Q16665 whole entry, looked up, the tested form may be a part): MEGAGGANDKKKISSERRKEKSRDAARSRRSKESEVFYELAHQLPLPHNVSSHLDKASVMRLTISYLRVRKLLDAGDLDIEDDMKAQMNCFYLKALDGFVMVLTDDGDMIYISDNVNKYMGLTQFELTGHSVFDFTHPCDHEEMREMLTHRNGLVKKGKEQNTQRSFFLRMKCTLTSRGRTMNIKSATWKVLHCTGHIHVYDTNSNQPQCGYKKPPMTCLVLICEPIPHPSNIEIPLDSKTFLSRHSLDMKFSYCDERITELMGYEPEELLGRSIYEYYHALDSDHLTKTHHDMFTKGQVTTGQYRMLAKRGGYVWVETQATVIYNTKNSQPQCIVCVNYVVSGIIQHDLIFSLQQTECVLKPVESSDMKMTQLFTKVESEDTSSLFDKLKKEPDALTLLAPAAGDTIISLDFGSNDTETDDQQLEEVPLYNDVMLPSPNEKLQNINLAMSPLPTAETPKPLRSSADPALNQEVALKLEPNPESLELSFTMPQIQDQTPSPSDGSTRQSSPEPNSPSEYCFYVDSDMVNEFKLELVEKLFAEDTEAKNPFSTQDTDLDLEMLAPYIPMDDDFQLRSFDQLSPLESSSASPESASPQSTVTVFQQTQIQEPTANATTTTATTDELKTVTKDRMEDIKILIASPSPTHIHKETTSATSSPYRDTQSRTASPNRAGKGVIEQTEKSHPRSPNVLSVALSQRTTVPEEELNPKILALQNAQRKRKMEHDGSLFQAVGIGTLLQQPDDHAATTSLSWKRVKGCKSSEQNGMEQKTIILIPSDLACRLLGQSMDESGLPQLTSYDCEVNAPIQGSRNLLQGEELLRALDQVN

IC50 ([1]; mean of runs) | IC50 ([1]; run 1) [µM] | IC50 ([1]; run 2) [µM] | IC50 ([2]; HIF-2a PANC, mean of runs) | IC50 ([2]; HIF-2a PANC, run 1) [µM] | IC50 ([2]; HIF-2a PANC, run 2) [µM] | IC50 ([2]; HIF-2a, mean of runs) | IC50 ([2]; HIF-2a, run 1) [µM] | IC50 ([2]; HIF-2a, run 2) [µM] | Structure (SMILES)
inactive | 2.3 | 2.49 | 4.99 µM | 4.35 | 5.63 | 2.36 µM | 2.08 | 2.64 | COC(=O)CSc1nnc(-c2sc3ccccc3c2Cl)o1
inactive | 10.2 | 11.8 | inactive | 15.3 | 13.2 | 4.26 µM | 4.25 | 4.26 | CCOC(=O)c1c(C)nn(-c2ccc(NC(=O)c3c(C)noc3C)cc2)c1C
inactive | 20.3 | 20.1 | 21.8 µM | 22 | 21.6 | – | 8.21 | < 30 | COc1cccc(/C=N/Nc2ncccc2[N+](=O)[O-])c1OC
inactive | 12.9 | 20.6 | 18.4 µM | 20.3 | 16.6 | inactive | 11.7 | 9.93 | CC(=O)c1ccc(NC(=O)c2cnn3ccccc23)cc1
41.4 µM | 38.6 | 44.2 | 3.65 µM | 5.51 | 1.79 | 1.88 µM | 2.55 | 1.22 | COc1ccc2nc(-c3ccc(N)cc3)[nH]c2c1
40.8 µM | 41.2 | 40.3 | – | > 99 | < 3 | 7.05 µM | 7.84 | 6.26 | O=[N+]([O-])C1C(c2ccccc2)C12c1ccccc1-c1ccccc12 (stereo not given)
– | 3.06 | > 99 | inactive | 25.5 | 51.1 | 8.77 µM | 8.62 | 8.91 | O=Nc1c(O)ccc2cc(S(=O)(=O)O)ccc12
– | 68.3 | > 99 | > 99 µM (inactive) | > 99 | > 99 | inactive | 10.2 | 11.8 | COc1ccccc1N1C(=O)C=C(Sc2nc(C)cc(C)n2)C1=O
inactive | 2.91 | 1.65 | – | > 99 | 16.5 | 1.64 µM | 1.62 | 1.67 | CC(=O)Nc1ccc(NC(=O)c2oc3cc(C)c(C)cc3c2C)cc1
24.6 µM | 35.4 | 13.8 | 7.1 µM | 10.9 | 3.27 | 6.7 µM | 5.75 | 7.65 | CCOc1ccc2nc(SCc3ccc(CC(=O)O)cc3)c(C#N)cc2c1
– | 25.1 | > 99 | – | 53.4 | > 99 | inactive | 10.6 | 9.59 | CCc1ccc(S(=O)(=O)ON2C(=O)c3ccccc3C2=O)cc1
inactive | 7.03 | 17.2 | 7.76 µM | 8.52 | 7.01 | inactive | 12 | 13.1 | COc1ccc(/C=C2\SC(=O)N(CCNC(=O)Cn3[nH]c(=O)c4ccccc4c3=O)C2=O)cc1
– | > 99 | > 99 | > 99 µM (inactive) | > 99 | > 99 | 9.73 µM | 10.4 | 9.1 | O=C(CSc1nnc(-c2ccc(Br)cc2)o1)Nc1cccc(C(=O)O)c1
inactive | 52.5 | 40.5 | < 0.3 µM | < 1 | < 0.3 | – | > 99 | < 0.19 | CC(C)(C)c1ccc(/C=N/Nc2ccc(C(=O)O)cc2)cc1
inactive | 22.8 | 37.2 | – | > 99 | 49 | inactive | 15 | 14.5 | CCOC(=O)Cc1csc(NC(=S)NC(=O)c2ccccc2C)n1
– | > 99 | < 30 | – | > 99 | < 30 | – | < 30 | 8.63 | N#CCC(=O)N/N=C\c1cccc(OC/C=C/c2ccccc2)c1
inactive | 12.2 | 20.3 | 1.51 µM | 1.86 | 1.15 | – | > 99 | 1.58 | CC(=O)N(C(C)=O)c1ccc(Oc2ccc(Oc3ccc(N(C(C)=O)C(C)=O)cc3)cc2)cc1

IC50 ([1]; mean of runs) | IC50 ([1]; run 1) [µM] | IC50 ([1]; run 2) [µM] | IC50 ([2]; HIF-2a PANC, mean of runs) | IC50 ([2]; HIF-2a PANC, run 1) [µM] | IC50 ([2]; HIF-2a PANC, run 2) [µM] | IC50 ([2]; HIF-2a, mean of runs) | IC50 ([2]; HIF-2a, run 1) [µM] | IC50 ([2]; HIF-2a, run 2) [µM] | Structure (SMILES)
– | < 10 | > 99 | 0.711 µM | 0.556 | 0.866 | – | > 99 | 0.221 | CCOC(=O)Cc1csc(N/N=C/c2ccc(C(F)(F)F)cc2)n1
– | 13.7 | < 30 | 17.9 µM | 24.8 | 11 | < 30 µM (inactive) | < 30 | < 30 | CN(C)c1ccc(Nc2nc(N)c3ccccc3n2)cc1
inactive | 3.16 | 2.84 | 0.787 µM | 0.773 | 0.801 | 1.43 µM | 1.43 | 1.44 | Cc1nc2cc(-c3ccc(Cl)cc3)nn2c(C)c1CCC(=O)NCc1ccco1
– | 46.1 | > 99 | > 99 µM (inactive) | > 99 | > 99 | 6.37 µM | 6.68 | 6.06 | O=C(NNc1nc2ccccc2o1)c1ccccc1
– | > 99 | > 99 | > 99 µM (inactive) | > 99 | > 99 | inactive | 13.2 | 16.5 | CCOC(=O)c1cccc(COC(=O)c2cccc(-c3nnc(-c4ccccc4)o3)c2)c1
– | > 99 | > 99 | > 99 µM (inactive) | > 99 | > 99 | 7.89 µM | 7.68 | 8.1 | COc1ccc(OCc2cccc(C(=O)NN)c2)cc1
inactive | 15.4 | 15.7 | – | > 99 | 16.2 | inactive | 14.3 | 14.4 | CC1(C)CC[C@]2(C(=O)O)CC[C@]3(C)C(=CC[C@@H]4[C@@]5(C)CC[C@H](O[C@@H]6O[C@H](C(=O)O)[C@@H](O)[C@H](O[C@@H]7OC[C@H](O)[C@H](O)[C@H]7O)[C@H]6O)C(C)(C)[C@@H]5CC[C@]43C)[C@@H]2C1
27.5 µM | 28.9 | 26.2 | inactive | 81.3 | 31 | 7.43 µM | 7.46 | 7.41 | COCCn1c(C)cc(C(=O)CSc2nnc3ccccn23)c1C
inactive | 11.3 | 18 | 17.2 µM | 20 | 14.4 | < 30 µM (inactive) | < 30 | < 30 | c1c2c(cc3sc(N4CCOCC4)nc13)OCCO2
12.8 µM | 9.47 | 16 | – | > 99 | 63.8 | 3.88 µM | 4.21 | 3.55 | COc1ccc(C(=O)/C=C/C(=O)N(CC(=O)NCCC(C)C)Cc2cccs2)c(O)c1
28.6 µM | 27 | 30.2 | inactive | 44.3 | 80.5 | 7.71 µM | 7.38 | 8.04 | O=C(Nc1ccccc1)c1nnsc1S(=O)(=O)c1ccc(Cl)cc1
46.2 µM | 4.55 | 87.9 | 4.2 µM | 3.04 | 5.37 | 2.47 µM | 2.75 | 2.19 | CC(=O)Nc1ccc(OCC(=O)c2ccc(C)cc2C)cc1
– | > 99 | > 99 | inactive | 19.4 | 56.8 | inactive | 8.45 | 14.8 | CCOC(=O)C1CCN(C(=O)Nc2ccc3snnc3c2)CC1
inactive | 30.3 | 24.8 | 4.5 µM | 3.94 | 5.05 | inactive | 13 | 10.8 | COc1ccc(-c2cnc3c(NC=O)cc(-c4cccc(NS(C)(=O)=O)c4)cn23)cc1OC
inactive | 6.15 | 8.11 | 10.7 µM | 15.8 | 5.59 | 4.96 µM | 5.6 | 4.32 | CNC(=O)NC(=O)COC(=O)CCCSc1nc2ccccc2s1
– | > 99 | > 99 | > 99 µM (inactive) | > 99 | > 99 | < 30 µM (inactive) | < 30 | < 30 | O=C(O)c1cccc(-c2nnn(Cc3ccccc3Cl)n2)c1

Structure (SMILES) | IC50 ([1]; mean of runs) | IC50 ([1]; run 1) [µM] | IC50 ([1]; run 2) [µM] | IC50 ([2]; HIF-2a PANC, mean of runs) | IC50 ([2]; HIF-2a PANC, run 1) [µM] | IC50 ([2]; HIF-2a PANC, run 2) [µM] | IC50 ([2]; HIF-2a, mean of runs) | IC50 ([2]; HIF-2a, run 1) [µM] | IC50 ([2]; HIF-2a, run 2) [µM]
C=C1C(=O)OC2CC3(C)OC3C3OC3C3=CC(OC3=O)C12 (stereo not given) | 36.4 µM | 33.9 | 38.9 | – | > 99 | 59.7 | inactive | 11.4 | 10.3
CN(C)c1c([N+](=O)[O-])cc(N2C(=O)C=CC2=O)cc1[N+](=O)[O-] | 52.2 µM | 63.9 | 40.5 | inactive | 22.2 | 41.7 | 8.6 µM | 8.29 | 8.9
